From publication PMC2394794 (Journal of Synchrotron Radiation, 2008)
Read-outs that look alike come from different tables or passages of the source.

Legend:
[1] = biological target: T1, HCV NS3/4A protease (Hepatitis C virus genotype 1a, UniProt P27958); test: Inhibition of HCV NS3/4A protease by ketoamide inhibitors; assay type: biochemical; details: P2 = DMCP versus P2 = Leu
[2] = biological target: T1, HCV NS3/4A protease; details: experimental over predicted relative Ki*

T1 sequence (P27958 1658-1711): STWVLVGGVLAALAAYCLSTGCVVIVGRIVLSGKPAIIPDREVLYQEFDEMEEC
T1 sequence (P27958 1027-1208): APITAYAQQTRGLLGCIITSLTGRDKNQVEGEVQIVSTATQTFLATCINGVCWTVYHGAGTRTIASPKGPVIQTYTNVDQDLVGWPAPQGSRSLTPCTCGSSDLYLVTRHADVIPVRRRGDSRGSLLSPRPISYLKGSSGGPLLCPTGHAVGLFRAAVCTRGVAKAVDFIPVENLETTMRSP

CC(C)(C)NC(=O)N[C@H](C(=O)N1C[C@H]2[C@@H]([C@H]1C(=O)NC(CC1CCC1)C(=O)C(N)=O)C2(C)C)C(C)(C)C (stereo partly drawn) [Compd 9, ^tBu–urea–t-Bug–DMCP–c-Bua–CONH2]
increase in potency relative to Leu [1]: 70 fold | Ki* ratio exp./SA ([2]; P2 series): 4.1 | Ki* ratio exp./SA ([2]; P3 series): 9.0
